Target: T1, PL3
T1 construct: gene pal
Conditions: read-out: apparent half-dissociation constant; 20 mM sodium phosphate, reducing conditions (pH 6.8 in the other assays); 20 °C; higher-affinity sites of a two-sigmoid fit (midpoint value); lower-affinity sites not listed

C[N+](C)(C)CCO [choline]
Kd: 60 ± 9 µM
